PMC7736581, “Activation of the IRE1 RNase through remodeling of the kinase front pocket by ATP-competitive ligands” (Nature Communications, 2020)

Experiments:
Assay in all cases: biochemical
Parameters in all cases: Invitrogen kinase panel: Z'Lyte activity (ATP at Km) or LanthaScreen competitive ATP-site binding, percent inhibition
ROCK2 = ROCK2 (Homo sapiens, UniProt O75116)
MST3 = molecular target: T1, MST3 (Homo sapiens, UniProt Q9Y6E0)
T1 construct: gene STK24

eEF-2K = molecular target: T2, eEF-2K (Homo sapiens, UniProt O00418)
T2 construct: gene EEF2K

PDGFR_alpha = molecular target: T3, PDGFR_alpha (Homo sapiens, UniProt P16234)
T3 construct: gene PDGFRA

GRK6 = GRK6 (Homo sapiens, UniProt P43250)
PIM1 = PIM1 (Homo sapiens, UniProt P11309)
Sequence of PIM1 (P11309 whole entry): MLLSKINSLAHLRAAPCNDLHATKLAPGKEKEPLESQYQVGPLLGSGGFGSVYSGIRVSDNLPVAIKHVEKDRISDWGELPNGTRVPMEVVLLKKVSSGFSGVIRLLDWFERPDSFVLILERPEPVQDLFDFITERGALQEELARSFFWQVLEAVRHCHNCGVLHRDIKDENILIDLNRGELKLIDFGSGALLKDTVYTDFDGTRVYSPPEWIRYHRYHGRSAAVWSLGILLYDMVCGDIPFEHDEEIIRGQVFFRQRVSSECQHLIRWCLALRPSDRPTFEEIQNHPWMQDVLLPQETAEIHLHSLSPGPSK

ASK1 = molecular target: T4, ASK1 (Homo sapiens, UniProt Q99683)
T4 construct: gene MAP3K5

MAP4K4 = MAP4K4 (Homo sapiens, UniProt O95819)
CSF1R = CSF1R (Homo sapiens, UniProt P07333)
PAK4 = PAK4 (Homo sapiens, UniProt O96013)
Sequence of PAK4 (O96013 whole entry): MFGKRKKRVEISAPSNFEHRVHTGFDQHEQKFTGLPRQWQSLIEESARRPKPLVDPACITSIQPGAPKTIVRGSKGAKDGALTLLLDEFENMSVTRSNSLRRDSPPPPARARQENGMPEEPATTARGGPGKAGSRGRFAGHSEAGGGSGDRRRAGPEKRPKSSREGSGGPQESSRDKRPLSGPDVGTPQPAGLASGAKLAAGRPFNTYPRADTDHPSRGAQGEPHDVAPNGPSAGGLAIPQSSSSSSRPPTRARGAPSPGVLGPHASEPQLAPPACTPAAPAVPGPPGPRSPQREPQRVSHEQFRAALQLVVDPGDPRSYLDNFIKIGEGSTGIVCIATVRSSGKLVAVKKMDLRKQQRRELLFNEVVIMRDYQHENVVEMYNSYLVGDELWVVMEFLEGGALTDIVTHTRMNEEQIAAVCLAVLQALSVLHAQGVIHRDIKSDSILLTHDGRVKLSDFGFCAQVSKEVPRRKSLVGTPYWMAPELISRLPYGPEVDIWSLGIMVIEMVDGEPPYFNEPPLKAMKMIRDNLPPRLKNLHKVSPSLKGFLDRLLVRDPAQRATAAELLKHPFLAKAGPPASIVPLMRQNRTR

IRAK1 = IRAK1 (Homo sapiens, UniProt P51617)
Fes = Fes (Homo sapiens, UniProt P07332)
Sequence of Fes (P07332 whole entry): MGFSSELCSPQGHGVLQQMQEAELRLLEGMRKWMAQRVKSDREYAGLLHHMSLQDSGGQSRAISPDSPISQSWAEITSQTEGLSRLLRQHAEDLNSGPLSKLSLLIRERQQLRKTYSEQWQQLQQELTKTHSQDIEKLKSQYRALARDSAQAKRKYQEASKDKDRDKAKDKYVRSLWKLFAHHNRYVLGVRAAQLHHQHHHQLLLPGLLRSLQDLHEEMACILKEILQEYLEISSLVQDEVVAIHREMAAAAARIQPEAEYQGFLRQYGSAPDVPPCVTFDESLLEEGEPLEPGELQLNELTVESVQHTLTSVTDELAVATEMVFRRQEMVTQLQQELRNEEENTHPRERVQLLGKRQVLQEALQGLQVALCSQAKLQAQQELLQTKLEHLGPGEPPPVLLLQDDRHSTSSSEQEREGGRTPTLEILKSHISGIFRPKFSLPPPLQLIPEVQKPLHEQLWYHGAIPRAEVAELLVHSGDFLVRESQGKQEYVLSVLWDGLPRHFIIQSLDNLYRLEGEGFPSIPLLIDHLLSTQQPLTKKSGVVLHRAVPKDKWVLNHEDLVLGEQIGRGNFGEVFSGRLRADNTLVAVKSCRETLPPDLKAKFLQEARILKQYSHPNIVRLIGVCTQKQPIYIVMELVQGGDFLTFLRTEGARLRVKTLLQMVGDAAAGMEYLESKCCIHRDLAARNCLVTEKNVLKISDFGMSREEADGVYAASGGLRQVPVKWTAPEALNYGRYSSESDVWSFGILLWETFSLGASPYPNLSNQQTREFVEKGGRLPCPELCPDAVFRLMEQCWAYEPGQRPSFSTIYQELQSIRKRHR

TEC = TEC (Homo sapiens, UniProt P42680)
Sequence of TEC (P42680 whole entry): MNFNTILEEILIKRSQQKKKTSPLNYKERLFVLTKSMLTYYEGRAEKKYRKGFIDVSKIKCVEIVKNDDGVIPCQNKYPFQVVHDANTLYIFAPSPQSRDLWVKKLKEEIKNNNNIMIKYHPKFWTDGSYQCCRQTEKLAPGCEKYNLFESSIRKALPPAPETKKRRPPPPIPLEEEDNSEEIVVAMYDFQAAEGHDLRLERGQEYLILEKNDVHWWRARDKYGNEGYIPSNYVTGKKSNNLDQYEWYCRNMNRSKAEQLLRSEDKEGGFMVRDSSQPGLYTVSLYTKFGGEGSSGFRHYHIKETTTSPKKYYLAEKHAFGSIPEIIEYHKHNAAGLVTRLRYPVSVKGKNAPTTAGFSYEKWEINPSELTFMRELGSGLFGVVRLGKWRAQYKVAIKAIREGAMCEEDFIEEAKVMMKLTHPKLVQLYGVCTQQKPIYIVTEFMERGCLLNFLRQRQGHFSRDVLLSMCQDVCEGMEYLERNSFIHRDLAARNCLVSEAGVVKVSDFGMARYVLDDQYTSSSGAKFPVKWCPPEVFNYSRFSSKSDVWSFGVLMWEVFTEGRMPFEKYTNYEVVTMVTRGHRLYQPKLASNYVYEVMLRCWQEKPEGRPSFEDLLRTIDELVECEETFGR

Kit = Kit (Homo sapiens, UniProt P10721)
Ron = molecular target: T5, Ron (Homo sapiens, UniProt Q04912)
T5 construct: gene MST1R

Axl = Axl (Homo sapiens, UniProt P30530)
MKNK1 = MKNK1 (Homo sapiens, UniProt Q9BUB5)
FAK = molecular target: T6, FAK (Homo sapiens, UniProt Q05397)
T6 construct: gene PTK2

CK1_epsilon1 = molecular target: T7, CK1_epsilon1 (Homo sapiens, UniProt P49674)
T7 construct: gene CSNK1E; epsilon 1

p38_gamma = molecular target: T8, p38_gamma (Homo sapiens, UniProt P53778)
T8 construct: gene MAPK12

MST4 = molecular target: T9, MST4 (Homo sapiens, UniProt Q9P289)
T9 construct: gene STK26

JNK3 = molecular target: T10, JNK3 (Homo sapiens, UniProt P53779)
T10 construct: gene MAPK10
T10 sequence (P53779 whole entry): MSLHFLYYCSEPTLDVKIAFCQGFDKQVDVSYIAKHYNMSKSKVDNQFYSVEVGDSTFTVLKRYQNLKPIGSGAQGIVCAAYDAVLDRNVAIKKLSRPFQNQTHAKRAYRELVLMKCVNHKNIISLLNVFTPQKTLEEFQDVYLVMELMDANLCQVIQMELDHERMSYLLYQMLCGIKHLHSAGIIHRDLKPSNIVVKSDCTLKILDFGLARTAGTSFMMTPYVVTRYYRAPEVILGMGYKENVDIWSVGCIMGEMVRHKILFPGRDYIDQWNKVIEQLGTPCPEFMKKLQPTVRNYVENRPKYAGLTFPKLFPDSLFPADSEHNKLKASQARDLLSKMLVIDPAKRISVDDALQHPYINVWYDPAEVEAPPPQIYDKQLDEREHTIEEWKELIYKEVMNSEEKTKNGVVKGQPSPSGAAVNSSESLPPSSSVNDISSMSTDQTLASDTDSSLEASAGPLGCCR

ErbB2 = ErbB2 (Homo sapiens, UniProt P04626)
Sequence of ErbB2 (P04626 whole entry): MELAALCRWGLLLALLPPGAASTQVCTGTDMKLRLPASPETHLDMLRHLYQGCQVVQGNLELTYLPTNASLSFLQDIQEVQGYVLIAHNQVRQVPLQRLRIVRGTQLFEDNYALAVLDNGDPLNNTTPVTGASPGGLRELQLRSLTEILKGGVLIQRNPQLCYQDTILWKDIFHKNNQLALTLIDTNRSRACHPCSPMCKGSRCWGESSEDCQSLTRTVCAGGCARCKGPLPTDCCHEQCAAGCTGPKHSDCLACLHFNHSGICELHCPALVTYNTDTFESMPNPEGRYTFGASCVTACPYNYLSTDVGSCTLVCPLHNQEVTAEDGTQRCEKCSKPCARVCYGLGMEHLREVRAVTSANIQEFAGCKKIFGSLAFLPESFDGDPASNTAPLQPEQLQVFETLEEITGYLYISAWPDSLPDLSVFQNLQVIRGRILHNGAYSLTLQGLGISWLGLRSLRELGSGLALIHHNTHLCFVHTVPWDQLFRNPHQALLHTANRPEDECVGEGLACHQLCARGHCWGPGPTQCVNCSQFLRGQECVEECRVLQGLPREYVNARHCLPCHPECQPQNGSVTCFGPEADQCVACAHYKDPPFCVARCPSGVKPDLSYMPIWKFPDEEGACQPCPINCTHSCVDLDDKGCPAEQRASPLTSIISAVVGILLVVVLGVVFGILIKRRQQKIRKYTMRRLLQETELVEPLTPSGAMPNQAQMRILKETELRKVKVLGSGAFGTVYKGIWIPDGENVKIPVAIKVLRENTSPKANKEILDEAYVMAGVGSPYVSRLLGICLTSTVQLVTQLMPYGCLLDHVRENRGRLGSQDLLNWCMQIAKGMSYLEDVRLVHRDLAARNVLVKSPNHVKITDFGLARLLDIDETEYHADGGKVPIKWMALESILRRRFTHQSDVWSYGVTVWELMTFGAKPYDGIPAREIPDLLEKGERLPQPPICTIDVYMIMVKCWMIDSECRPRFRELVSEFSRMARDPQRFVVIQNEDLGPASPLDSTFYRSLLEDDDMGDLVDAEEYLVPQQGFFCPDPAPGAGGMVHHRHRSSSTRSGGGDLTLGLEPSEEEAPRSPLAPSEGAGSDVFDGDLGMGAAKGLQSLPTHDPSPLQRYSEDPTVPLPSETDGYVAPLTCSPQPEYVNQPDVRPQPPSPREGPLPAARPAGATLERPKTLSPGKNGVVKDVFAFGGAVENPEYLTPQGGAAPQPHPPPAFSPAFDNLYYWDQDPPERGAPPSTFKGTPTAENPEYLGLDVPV

PLK3 = PLK3 (Homo sapiens, UniProt Q9H4B4)
NLK = NLK (Homo sapiens, UniProt Q9UBE8)
Sequence of NLK (Q9UBE8 whole entry): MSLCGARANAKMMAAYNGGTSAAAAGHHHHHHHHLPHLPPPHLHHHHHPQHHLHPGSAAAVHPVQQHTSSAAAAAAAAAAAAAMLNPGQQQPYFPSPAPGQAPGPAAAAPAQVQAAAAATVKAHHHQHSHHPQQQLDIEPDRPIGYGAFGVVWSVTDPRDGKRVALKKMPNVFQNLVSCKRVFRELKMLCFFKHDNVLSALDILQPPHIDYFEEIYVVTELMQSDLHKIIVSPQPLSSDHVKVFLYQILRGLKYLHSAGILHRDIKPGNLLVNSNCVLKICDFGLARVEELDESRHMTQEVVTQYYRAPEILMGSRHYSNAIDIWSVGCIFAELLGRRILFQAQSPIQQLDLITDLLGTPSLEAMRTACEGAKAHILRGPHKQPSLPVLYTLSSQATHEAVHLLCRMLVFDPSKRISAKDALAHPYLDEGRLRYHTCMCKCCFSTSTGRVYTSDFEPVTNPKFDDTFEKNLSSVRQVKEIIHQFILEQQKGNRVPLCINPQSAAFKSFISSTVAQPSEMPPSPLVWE

T1 sequence (Q9Y6E0 whole entry): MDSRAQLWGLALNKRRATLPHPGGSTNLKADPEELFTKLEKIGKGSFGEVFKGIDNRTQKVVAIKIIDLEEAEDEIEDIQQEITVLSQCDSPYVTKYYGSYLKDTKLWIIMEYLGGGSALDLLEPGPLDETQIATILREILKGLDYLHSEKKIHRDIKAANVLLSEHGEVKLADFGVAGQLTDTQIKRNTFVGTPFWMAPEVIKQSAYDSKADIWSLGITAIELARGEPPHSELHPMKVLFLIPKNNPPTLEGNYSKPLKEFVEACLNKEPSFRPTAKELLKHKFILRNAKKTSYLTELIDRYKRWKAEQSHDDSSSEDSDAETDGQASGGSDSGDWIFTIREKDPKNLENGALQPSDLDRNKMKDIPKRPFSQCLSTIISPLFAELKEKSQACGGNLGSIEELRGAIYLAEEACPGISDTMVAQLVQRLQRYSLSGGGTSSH

| SMILES | inhibition at 1 µM (ROCK2) [%] | inhibition at 1 µM (MST3) [%] | inhibition at 1 µM (eEF-2K) [%] | inhibition at 1 µM (PDGFR_alpha) [%] | inhibition at 1 µM (GRK6) [%] | inhibition at 1 µM (PIM1) [%] | inhibition at 1 µM (ASK1) [%] | inhibition at 1 µM (MAP4K4) [%] | inhibition at 1 µM (CSF1R) [%] | inhibition at 1 µM (PAK4) [%] | inhibition at 1 µM (IRAK1) [%] | inhibition at 1 µM (Fes) [%] | inhibition at 1 µM (TEC) [%] | inhibition at 1 µM (Kit) [%] | inhibition at 1 µM (Ron) [%] | inhibition at 1 µM (Axl) [%] | inhibition at 1 µM (MKNK1) [%] | inhibition at 1 µM (FAK) [%] | inhibition at 1 µM (CK1_epsilon1) [%] | inhibition at 1 µM (p38_gamma) [%] | other results |
| --- | --- | --- | --- | --- | --- | --- | --- | --- | --- | --- | --- | --- | --- | --- | --- | --- | --- | --- | --- | --- | --- |
| CCOC(=O)Nc1cccc2c(Oc3ncccc3-c3ccnc(N[C@H]4CCCNC4)n3)c(C)ccc12 [G-1749] | 1 | -2 | 5 | -3.5 | -1 | -5.5 | -4 | 31 | 7 | 0 | 9 | 5 | 4 | 0 | -6 | -1.5 | 1.5 | 1.5 | 37 | 18 | inhibition at 1 µM (MST4): -12.5%; inhibition at 1 µM (JNK3): 52.5%; inhibition at 1 µM (ErbB2): 7.5%; inhibition at 1 µM (PLK3): -5%; inhibition at 1 µM (NLK): 13% |
| CC#CC(=O)Nc1cccc2c(Oc3ncccc3-c3ccnc(N[C@H]4CCCNC4)n3)c(C)ccc12 [G-7658] | -0.5 | -8.5 | 5 | -0.5 | 1.5 | -6 | 2 | 21.5 | -7.5 | 0 | 11.5 | 3.5 | 3 | -0.5 | 4 | -1 | -1 | 1.5 | 36 | 16.5 | inhibition at 1 µM (MST4): -3.5%; inhibition at 1 µM (JNK3): 51.5%; inhibition at 1 µM (ErbB2): 3.5%; inhibition at 1 µM (PLK3): -2.5%; inhibition at 1 µM (NLK): 19% |
